{"source": "patent US9994587B2", "about": "“HIV protease inhibitors” (priority 2014, dated 2018)", "biological_target": "T1, wildtype HIV-1 protease (Human immunodeficiency virus type 1 group M subtype B, UniProt P04585)", "T1 construct": "preincubated with the HIV-1 protease (wild type) enzyme in assay buffer; made in house; host or cells: Escherichia coli", "test": "Assay for inhibition of microbial expressed HIV protease (Pepcleav)", "format": "biochemical", "conditions": "wild type HIV-1 protease 20 pM, peptide substrate 400 micromolar, pH 5.5; mean of at least two independent experiments", "experimental": "Assay for Inhibition of Microbial Expressed HIV Protease (“Pepcleav”)\nStudies of the inhibition of the wildtype HIV-1 protease (which was expressed in Escherichia coli) were carried out with a peptide substrate [Val-Ser-Gln-Asn-(βnaphtyl)Ala-Pro-Ile-Val (SEQ ID NO 1)]. The inhibitor was first preincubated with the HIV-1 protease (wild type) enzyme in assay buffer (50 mM sodium acetate, pH 5.5, 100 mM NaCl, and 0.1% BSA) for 30 minutes at room temperature. Substrate was added to 400 micromolar in a total volume of 20 microliters containing 20 picomolar HIV-1 protease (final) and the reaction is incubated for 1 hour at 30° C. The reaction was quenched with the addition of formic acid and indinavir to 0.012% and 150 nM final concentrations, respectively. Product formation was determined after separation of product and substrate on a Zorbax Eclipse XDB-C18 column connected to an API 4000 mass spectrometer (Applied Biosystems) with multiple reaction monitoring (transitions were 644.5/428.9 and 615.4/422.2 (M1/M3) for product and indinavir respectively). The extent of inhibition of the reaction was determined from the peak area of the products.", "data": [{"smiles": "COC(=O)N[C@H](C(=O)Nc1ccccc1CC[C@@H]1CNC[C@@H](COc2ccc(-n3cccn3)cc2)O1)C(c1ccccc1)c1ccccc1", "note": "[Example 43, N-α-(methoxycarbonyl)-β-phenyl-N-(2-{2-[(2R,6S)-6-{[4-(1H-pyrazol-1-yl)phenoxy]methyl}morpholin-2-yl]ethyl}phenyl)-L-phenylalaninamide]", "values": [{"measurement": "IC50", "result": 4.7, "unit": "nM"}]}, {"smiles": "COC(=O)N[C@H](C(=O)Nc1ccccc1CC[C@@H]1CNC[C@@H](COc2ccc(C(F)(F)F)cc2)O1)C(c1ccccc1)c1ccccc1", "note": "[Example 44, N-α-(methoxycarbonyl)-β-phenyl-N-(2-{2-[(2R,6S)-6-{[4-(trifluoromethyl)phenoxy]methyl}morpholin-2-yl]ethyl}phenyl)-L-phenylalaninamide]", "values": [{"measurement": "IC50", "result": 14, "unit": "nM"}]}, {"smiles": "COC(=O)N[C@H](C(=O)Nc1ccccc1CC[C@@H]1CNC[C@@H](COc2ccc3cn[nH]c3c2)O1)C(c1ccccc1)c1ccccc1", "note": "[Example 45, N-[2-(2-{(2R,6S)-6-[(1H-indazol-6-yloxy)methyl]morpholin-2-yl}ethyl)phenyl]-Nα-(methoxycarbonyl)-β-phenyl-L-phenylalaninamide]", "values": [{"measurement": "IC50", "result": 11, "unit": "nM"}]}, {"smiles": "COC(=O)N[C@H](C(=O)Nc1ccccc1CC[C@@H]1CNC[C@@H](COc2ccc(F)cc2)O1)C(c1ccccc1)c1ccccc1", "note": "[Example 46, N-[2-(2-{(2R,6S)-6-[(4-fluorophenoxy)methyl]morpholin-2-yl}ethyl)phenyl]-Nα-(methoxycarbonyl)-β-phenyl-L-phenylalaninamide]", "values": [{"measurement": "IC50", "result": 23, "unit": "nM"}]}, {"smiles": "COC(=O)N[C@H](C(=O)Nc1ccccc1CC[C@@H]1CNC[C@@H](COc2cccc(F)c2)O1)C(c1ccccc1)c1ccccc1", "note": "[Example 47, N-[2-(2-{(2R,6S)-6-[(3-fluorophenoxy)methyl]morpholin-2-yl}ethyl)phenyl]-Nα-(methoxycarbonyl)-β-phenyl-L-phenylalaninamide]", "values": [{"measurement": "IC50", "result": 12, "unit": "nM"}]}, {"smiles": "COC(=O)N[C@H](C(=O)Nc1ccccc1CC[C@@H]1CNC[C@@H](COc2ccc3ncsc3c2)O1)C(c1ccccc1)c1ccccc1", "note": "[Example 48, N-[2-(2-{(2R,6S)-6-[(1,3-benzothiazol-6-yloxy)methyl]morpholin-2-yl}ethyl)phenyl]-Nα-(methoxycarbonyl)-β-phenyl-L-phenylalaninamide]", "values": [{"measurement": "IC50", "result": 5.5, "unit": "nM"}]}, {"smiles": "COC(=O)N[C@H](C(=O)Nc1ccccc1CC[C@@H]1CNC[C@@H](COc2ccccc2F)O1)C(c1ccccc1)c1ccccc1", "note": "[Example 49, N-[2-(2-{(2R,6S)-6-[(2-fluorophenoxy)methyl]morpholin-2-yl}ethyl)phenyl]-Nα-(methoxycarbonyl)-β-phenyl-L-phenylalaninamide]", "values": [{"measurement": "IC50", "result": 14, "unit": "nM"}]}, {"smiles": "COC(=O)N[C@H](C(=O)Nc1ccccc1CC[C@@H]1CNC[C@@H](COc2cccnc2C)O1)C(c1ccccc1)c1ccccc1", "note": "[Example 50, N-α-(methoxycarbonyl)-N-(2-{2-[(2R,6S)-6-{[(2-methylpyridin-3-yl)oxy]methyl}morpholin-2-yl]ethyl}phenyl)-β-phenyl-L-phenylalaninamide]", "values": [{"measurement": "IC50", "result": 130, "unit": "nM"}]}, {"smiles": "COC(=O)N[C@H](C(=O)Nc1ccccc1CC[C@@H]1CNC[C@@H](COc2cccc3ncccc23)O1)C(c1ccccc1)c1ccccc1", "note": "[Example 51, methyl [(2S)-1-oxo-3,3-diphenyl-1-{[2-[2-{(2R,6S)-6-[(quinolin-5-yloxy)methyl]morpholin-2-yl}ethyl)phenyl]amino}propan-2-yl]carbamate]", "values": [{"measurement": "IC50", "result": 14, "unit": "nM"}]}, {"smiles": "COC(=O)N[C@H](C(=O)Nc1ccccc1CC[C@@H]1CNC[C@@H](COc2ccc(-c3ccncc3)cc2)O1)C(c1ccccc1)c1ccccc1", "note": "[Example 52, N-α-(methoxycarbonyl)-β-phenyl-N-(2-{2-[(2R,6S)-6-{[4-(pyridin-4-yl)phenoxy]methyl}morpholin-2-yl]ethyl}phenyl)-L-phenylalaninamide]", "values": [{"measurement": "IC50", "result": 4, "unit": "nM"}]}, {"smiles": "COC(=O)N[C@H](C(=O)Nc1ccccc1CC[C@@H]1CNC[C@@H](COc2ccc3c(c2)NCCC3)O1)C(c1ccccc1)c1ccccc1", "note": "[Example 53, methyl [(2S)-1-oxo-3,3-diphenyl-1-{[2-(2-{(2R,6S)-6-[(1,2,3,4-tetrahydroquinolin-7-yloxy)methyl]morpholin-2-yl}ethyl)phenyl]amino}propan-2-yl]carbamate]", "values": [{"measurement": "IC50", "result": 13, "unit": "nM"}]}, {"smiles": "COC(=O)N[C@H](C(=O)Nc1ccccc1CC[C@@H]1CNC[C@@H](CSc2ncccc2Cl)O1)C(c1ccccc1)c1ccccc1", "note": "[Example 54, N-(2-{2-[(2R,6S)-6-{[(3-chloropyridin-2-yl)sulfanyl]methyl}morpholin-2-yl]ethyl}phenyl)-Nα-(methoxycarbonyl)-β-phenyl-L-phenylalaninamide]", "values": [{"measurement": "IC50", "result": 0.93, "unit": "nM"}]}, {"smiles": "COC(=O)N[C@H](C(=O)Nc1ccccc1CC[C@@H]1CNC[C@@H](COc2ccc(S(N)(=O)=O)cc2)O1)C(c1ccccc1)c1ccccc1", "note": "[Example 55, N-α-(methoxycarbonyl)-β-phenyl-N-[2-(2-{(2R,6S)-6-[(4-sulfamoylphenoxy)methyl]morpholin-2-yl}ethyl)phenyl]-L-phenylalaninamide]", "values": [{"measurement": "IC50", "result": 12, "unit": "nM"}]}, {"smiles": "COC(=O)N[C@H](C(=O)Nc1ccccc1CC[C@@H]1CNC[C@@H](CS(=O)(=O)c2ccc(Cl)cc2)O1)C(c1ccccc1)c1ccccc1", "note": "[Example 56, methyl N-[(1S)-1-benzhydryl-2-[[2-[2-[(2R,6S)-6-[(4-chlorophenyl)sulfonylmethyl]morpholin-2-yl]ethyl]phenyl]amino]-2-oxo-ethyl]carbamate]", "values": [{"measurement": "IC50", "result": 110, "unit": "nM"}]}, {"smiles": "COC(=O)N[C@H](C(=O)Nc1ccccc1CC[C@@H]1CNC[C@@H](C[S+]([O-])c2ccc(Cl)cc2)O1)C(c1ccccc1)c1ccccc1", "note": "(stereo partly drawn) [Example 57, methyl N-[(1S)-1-benzhydryl-2-[[2-[2-[(2R,6S)-6-[(4-chlorophenyl)sulfinylmethyl]morpholin-2-yl]ethyl]phenyl]amino]-2-oxo-ethyl]carbamate]", "values": [{"measurement": "IC50", "result": 280, "unit": "nM"}]}, {"smiles": "COC(=O)N[C@H](C(=O)Nc1ccccc1OC[C@@H]1CNC[C@@H](CSc2ccc(Cl)cc2)O1)C(c1ccccc1)c1ccccc1", "note": "[Example 58, methyl N-[(1S)-1-benzhydryl-2-[[2-[[(2S,6S)-6-[(4-chlorophenyl)sulfanylmethyl]morpholin-2-yl]methoxy]phenyl]amino]-2-oxo-ethyl]carbamate]", "values": [{"measurement": "IC50", "result": 8.1, "unit": "nM"}]}, {"smiles": "COC(=O)N[C@H](C(=O)Nc1ccccc1CC[C@@H]1CNC[C@@H](COCc2ccc(Cl)cc2)O1)C(c1ccccc1)c1ccccc1", "note": "[Example 59, methyl N-[(1S)-1-benzhydryl-2-[[2-[2-[(2R,6S)-6-[(4-chlorophenyl)methoxymethyl]morpholin-2-yl]ethyl]phenyl]amino]-2-oxo-ethyl]carbamate]", "values": [{"measurement": "IC50", "result": 62, "unit": "nM"}]}, {"smiles": "COC(=O)N[C@H](C(=O)Nc1ccccc1CC[C@@H]1CNC[C@@H](/C=C/c2ccc(Cl)cc2)O1)C(c1ccccc1)c1ccccc1", "note": "[Example 60, N-[2-(2-{(2R,6R)-6-[(E)-2-(4-chlorophenyl)ethenyl]morpholin-2-yl}ethyl)phenyl]-Nα-(methoxycarbonyl)-β-phenyl-L-phenylalaniamide]", "values": [{"measurement": "IC50", "result": 19, "unit": "nM"}]}, {"smiles": "COC(=O)N[C@H](C(=O)Nc1ccccc1CC[C@@H]1CNC[C@@H](/C=C/c2ccc(S(C)(=O)=O)cc2)O1)C(c1ccccc1)c1ccccc1", "note": "[Example 61, N-α-(methoxycarbonyl)-N-(2-{2-[(2R,6R)-6-{(E)-2-[4-(methylsulfonyl)phenyl]ethenyl}morpholin-2-yl]ethyl}phenyl)-β-phenyl-L-phenylalaninamide]", "values": [{"measurement": "IC50", "result": 5.9, "unit": "nM"}]}, {"smiles": "COC(=O)N[C@H](C(=O)Nc1ccccc1CC[C@@H]1CNC[C@@H](CCc2ccc(C#N)cc2)O1)C(c1ccccc1)c1ccccc1", "note": "[Example 63, N-[2-(2-{(2R,6R)-6-[2-(4-cyanophenyl)ethyl]morpholin-2-yl}ethyl)phenyl]-N-α-(methoxycarbonyl)-β-phenyl-L-phenylalaninamide]", "values": [{"measurement": "IC50", "result": 8.8, "unit": "nM"}]}, {"smiles": "COC(=O)N[C@H](C(=O)Nc1ccccc1CC[C@@H]1CNC[C@@H](CCOc2ccc(C#N)cc2)O1)C(c1ccccc1)c1ccccc1", "note": "[Example 64, N-[2-(2-{(2R,6R)-6-[2-(4-cyanophenoxy)ethyl]morpholin-2-yl}ethyl)phenyl]-Nα-(methoxycarbonyl)-β-phenyl-L-phenylalaninamide]", "values": [{"measurement": "IC50", "result": 28, "unit": "nM"}]}, {"smiles": "COC(=O)N[C@H](C(=O)Nc1ccccc1CC[C@@H]1CNC[C@@H](C(F)(F)Cc2ccc(Br)cc2)O1)C(c1ccccc1)c1ccccc1", "note": "[Example 65, N-[2-(2-{(2R,6S)-6-[2-(4-bromophenyl)-1,1-difluoroethyl]morpholin-2-yl}ethyl)phenyl]-Nα-(methoxycarbonyl)-β-phenyl-L-phenylalaninamide]", "values": [{"measurement": "IC50", "result": 50, "unit": "nM"}]}, {"smiles": "COC(=O)N[C@H](C(=O)Nc1ccccc1CC[C@@H]1CNC[C@@H](CSc2ccc(Cl)cc2)O1)[C@@H](c1ccccc1)c1cccnc1", "note": "[Example 66, (βS)—N-(2-{2-[(2R,6S)-6-{[(4-chlorophenyl)sulfanyl]methyl}morpholin-2-yl]ethyl}phenyl)-Nα-(methoxycarbonyl)-β-pyridin-3-yl-L-phenylalaninamide]", "values": [{"measurement": "IC50", "result": 0.2, "unit": "nM"}]}, {"smiles": "COC(=O)N[C@H](C(=O)Nc1ccccc1CC[C@@H]1CNC[C@@H](CSc2ccc(Cl)cc2)O1)[C@@H](c1ccccc1)c1c[nH]c2ncccc12", "note": "[Example 67, (βS)-N-(2-{2-[(2R,6S)-6-{[(4-chlorophenyl)sulfanyl]methyl}morpholin-2-yl]ethyl}phenyl)-Nα-(methoxycarbonyl)-β-1H-pyrrolo[2,3-b]pyridin-3-yl-L-phenylalaninamide]", "values": [{"measurement": "IC50", "result": 0.11, "unit": "nM"}]}]}
